Assay results as given in patent US20210380548A1, “Fused [1,2,4]Thiadiazine Derivatives Which Act as KAT Inhibitors of the MYST Family” (CTxT Pty Limited, priority 2017, published 2021).

Columns and labels:
TIP60-KAT5 [1] = molecular target: T1, TIP60-KAT5 (Homo sapiens, UniProt Q92993); assay: Acetyltransferase biochemical assay (AlphaScreen), KAT5; settings: Table 1 (TIP60-KAT5); 0.4 μM Acetyl coenzyme A, histone H4, 10 nM enzyme
T1 construct: encoding amino acid residues 2 to 461 (Uniprot Q92993-2) of human KAT5 isoform; made in house; host or cells: E. coli BL21 DE3
T1 sequence (Q92993 2-461 isoform Q92993-2): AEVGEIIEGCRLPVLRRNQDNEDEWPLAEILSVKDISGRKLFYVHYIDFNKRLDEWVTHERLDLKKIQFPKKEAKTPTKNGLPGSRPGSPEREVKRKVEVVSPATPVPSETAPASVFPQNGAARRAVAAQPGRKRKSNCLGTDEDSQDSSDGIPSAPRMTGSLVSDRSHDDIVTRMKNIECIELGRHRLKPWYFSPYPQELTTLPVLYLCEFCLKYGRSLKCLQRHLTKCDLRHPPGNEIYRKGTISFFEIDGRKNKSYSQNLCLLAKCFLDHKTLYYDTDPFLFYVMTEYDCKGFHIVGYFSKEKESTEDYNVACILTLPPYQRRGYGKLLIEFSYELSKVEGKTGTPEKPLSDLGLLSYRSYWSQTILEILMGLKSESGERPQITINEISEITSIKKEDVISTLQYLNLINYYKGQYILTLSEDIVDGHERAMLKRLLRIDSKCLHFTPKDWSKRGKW

MOF-KAT8 [2] = molecular target: T2, MOF-KAT8 (Homo sapiens, UniProt Q9H7Z6); assay: Acetyltransferase biochemical assay (AlphaScreen), KAT8; settings: Table 4 (MOF-KAT8); 0.4 μM Acetyl coenzyme A, histone H4, 20 nM enzyme
T2 sequence (Q9H7Z6 177-447): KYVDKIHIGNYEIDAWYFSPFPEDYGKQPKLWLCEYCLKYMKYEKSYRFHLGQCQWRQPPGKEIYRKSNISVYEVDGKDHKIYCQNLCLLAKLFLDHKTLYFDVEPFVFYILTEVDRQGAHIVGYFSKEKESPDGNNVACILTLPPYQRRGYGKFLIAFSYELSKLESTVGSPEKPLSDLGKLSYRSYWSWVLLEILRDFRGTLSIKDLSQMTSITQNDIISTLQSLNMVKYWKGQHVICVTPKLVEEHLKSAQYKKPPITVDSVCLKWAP

MOZ-KAT6A [3] = molecular target: T3, MOZ-KAT6A (Homo sapiens, UniProt Q92794, A567V); assay: Acetyltransferase biochemical assay (AlphaScreen), KAT6A; settings: Table 2 (MOZ-KAT6A); 10 μM Acetyl coenzyme A, histone H3.1, 5 nM enzyme
T3 construct: encoding amino acid residues 507 to 778 (Uniprot Q92794-1) of human KAT6A; made in house; host or cells: E. coli BL21 DE3
T3 sequence (Q92794 507-778 A567V limits assumed): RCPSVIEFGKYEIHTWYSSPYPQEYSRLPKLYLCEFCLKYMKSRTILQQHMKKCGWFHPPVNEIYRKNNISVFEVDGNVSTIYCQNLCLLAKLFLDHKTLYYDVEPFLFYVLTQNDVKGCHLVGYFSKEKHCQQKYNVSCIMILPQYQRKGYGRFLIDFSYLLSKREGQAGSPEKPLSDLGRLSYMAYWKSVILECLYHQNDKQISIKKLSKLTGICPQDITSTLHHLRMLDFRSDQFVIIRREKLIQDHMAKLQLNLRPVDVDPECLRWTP

[4] = tested on: histone H3K14 acetylation (HBO1 mediated) in U2OS cells; assay: Histone H3 Lysine 14 Acetylation Biomarker Assay (96 well, U2OS); format: cell-based; settings: Table 6, H3K14ac, 24 hours incubation, serum free medium
Procedure: Compounds may be tested for their ability to inhibit acetylation of the histone H3K14 marker (which is HBO1 mediated) in the following assay:
The cell line U2OS was seeded at a density of 12,000 cells per well in 96 well optical quality tissue culture plates in RPMI medium and 10% foetal bovine serum, and allowed to adhere for 24 hours under standard culture conditions (37 degree Celsius, 5% CO2). At the end of this period the cells were washed with serum free medium. Compound dilutions prepared in DMSO were added to the serum free medium, with negative control wells reserved for treatment with DMSO only and positive controls receiving a potent inhibitor compound (e.g. Example 36 in WO2016/198507) at 10 μM concentration. After incubation for 24 hours, the cells were fixed with 3.7% formaldehyde in PBS for 20 minutes at room temperature, washed with phosphate buffer saline containing 0.1% Tween 20 and blocked with Odyssey blocking buffer (LI-COR, Lincoln, Nebr.) containing 0.1% TritonX100. Anti-H3K14ac specific antibody (Cell Signalling Technologies) in Odyssey blocking buffer containing 0.1% Tween 20 was added and incubated for 14 hours at 4 degree Celsius. After washing, a secondary antibody labelled with Alexa647 dye (LifeTechnologies) and Hoechst 33342 (1 μg/mL, SigmaAldrich) were added for 1 hour incubation. Plates were washed and read on a PerkinElmer Phenix high content imaging platform. Using a Columbus image analysis pipeline, individual nuclei were located by Hoechst 33342 stain and the acetylation level was calculated from the Alexa647-related intensity in the same area. The resulting mean intensity per cell was directly converted to percent inhibition relative to controls on the same plate and the data fitted against a four-parameter logistic model to determine the 50% inhibitory concentration (IC50).

HBO-KAT7 [5] = molecular target: T4, HBO-KAT7 (Homo sapiens, UniProt O95251); assay: Acetyltransferase biochemical assay (AlphaScreen), KAT7; settings: Table 3 (HBO-KAT7); 0.4 μM Acetyl coenzyme A, histone H3.1, 40 nM enzyme
T4 construct: encoding amino acid residues 325 to 611 (Uniprot 095251-1) of human KAT7; made in house; host or cells: E. coli BL21 DE3 RIL
T4 sequence (O95251 with tags, fused parts or gaps): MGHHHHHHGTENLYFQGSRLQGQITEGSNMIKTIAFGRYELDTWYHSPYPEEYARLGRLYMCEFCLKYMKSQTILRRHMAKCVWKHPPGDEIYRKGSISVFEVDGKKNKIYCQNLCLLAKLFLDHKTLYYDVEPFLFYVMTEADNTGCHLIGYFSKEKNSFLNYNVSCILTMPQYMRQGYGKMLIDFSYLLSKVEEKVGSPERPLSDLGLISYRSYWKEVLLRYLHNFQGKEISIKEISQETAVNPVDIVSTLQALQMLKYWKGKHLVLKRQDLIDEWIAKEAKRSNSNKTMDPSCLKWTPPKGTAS

TIP60-KAT5 [6] = molecular target: T1, TIP60-KAT5; assay: Revised Acetyltransferase Biochemical Assay, KAT5; settings: 10 nM KAT5, 1 μM AcCoA, 100 nM histone H4, 90 min
HBO-KAT7 [7] = molecular target: T4, HBO-KAT7; assay: Revised Acetyltransferase Biochemical Assay, KAT7; settings: Table 9 (HBO-KAT7), 1 μM Acetyl coenzyme A
MOZ-KAT6A [8] = molecular target: T3, MOZ-KAT6A; assay: Revised Acetyltransferase Biochemical Assay, KAT6A; settings: Table 8 (MOZ-KAT6A), 1 μM Acetyl coenzyme A
MOF-KAT8 [9] = molecular target: T2, MOF-KAT8; assay: Revised Acetyltransferase Biochemical Assay, KAT8
[10] = tested on: histone H3K23 acetylation (KATE mediated) in U2OS cells; assay: Histone H3 Lysine 23 Acetylation Biomarker Assay (U2OS); format: cell-based; settings: Homo sapiens, 96 well, 24 hours incubation
In short: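 U2OS cells were treated with compound for 24 h, then fixed and immunostained for H3K23ac with Hoechst nuclear counterstain. Per-nucleus Alexa647 intensity was quantified by high-content imaging and converted to % inhibition against DMSO and 10 μM reference-inhibitor controls. IC50 was derived from a four-parameter logistic fit.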

[11] = tested on: histone H3 Lysine 14 acetylation (HBO1 mediated) in U2OS cells; assay: Histone H3 Lysine 14 Acetylation Biomarker Assay (384-well, U2OS); format: cell-based; settings: Homo sapiens, serum free medium, 24 hours incubation
In short: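 U2OS cells in serum-free medium treated with compound 24 h; DMSO and 10 μM reference inhibitor as 0% and 100% controls. Fixed cells immunostained for H3K14ac (AlexaFluor 488) with Hoechst nuclear mask, imaged by high-content analysis; per-cell intensity converted to % inhibition, IC50 by four-parameter logistic fit.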

[12] = tested on: histone H2A.Z Lysine 7 acetylation (TIP60 mediated) in U2OS cells; assay: H2A.Z Lysine 7 Acetylation Biomarker Assay (384-well, U2OS); format: cell-based; settings: Homo sapiens, serum free medium, 24 hours incubation
In short: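 U2OS cells (3,000/well) were treated with compound for 24 h after a serum-free wash, then fixed. They were stained with anti-H2A.ZK7ac, an AlexaFluor 488 secondary and Hoechst. High-content imaging gave mean nuclear intensity per cell, converted to percent inhibition against on-plate controls, and IC50 came from a four-parameter logistic fit.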

QKF-KAT6B = molecular target: T5, QKF-KAT6B (Homo sapiens, UniProt Q8WYB5); assay: Revised Acetyltransferase Biochemical Assay, KAT6B; settings: 8 nM KAT6B, 1 μM AcCoA, 100 nM histone H3.1, 90 min
T5 construct: purchased SignalChem K315-381BG
T5 sequence (Q8WYB5 whole entry): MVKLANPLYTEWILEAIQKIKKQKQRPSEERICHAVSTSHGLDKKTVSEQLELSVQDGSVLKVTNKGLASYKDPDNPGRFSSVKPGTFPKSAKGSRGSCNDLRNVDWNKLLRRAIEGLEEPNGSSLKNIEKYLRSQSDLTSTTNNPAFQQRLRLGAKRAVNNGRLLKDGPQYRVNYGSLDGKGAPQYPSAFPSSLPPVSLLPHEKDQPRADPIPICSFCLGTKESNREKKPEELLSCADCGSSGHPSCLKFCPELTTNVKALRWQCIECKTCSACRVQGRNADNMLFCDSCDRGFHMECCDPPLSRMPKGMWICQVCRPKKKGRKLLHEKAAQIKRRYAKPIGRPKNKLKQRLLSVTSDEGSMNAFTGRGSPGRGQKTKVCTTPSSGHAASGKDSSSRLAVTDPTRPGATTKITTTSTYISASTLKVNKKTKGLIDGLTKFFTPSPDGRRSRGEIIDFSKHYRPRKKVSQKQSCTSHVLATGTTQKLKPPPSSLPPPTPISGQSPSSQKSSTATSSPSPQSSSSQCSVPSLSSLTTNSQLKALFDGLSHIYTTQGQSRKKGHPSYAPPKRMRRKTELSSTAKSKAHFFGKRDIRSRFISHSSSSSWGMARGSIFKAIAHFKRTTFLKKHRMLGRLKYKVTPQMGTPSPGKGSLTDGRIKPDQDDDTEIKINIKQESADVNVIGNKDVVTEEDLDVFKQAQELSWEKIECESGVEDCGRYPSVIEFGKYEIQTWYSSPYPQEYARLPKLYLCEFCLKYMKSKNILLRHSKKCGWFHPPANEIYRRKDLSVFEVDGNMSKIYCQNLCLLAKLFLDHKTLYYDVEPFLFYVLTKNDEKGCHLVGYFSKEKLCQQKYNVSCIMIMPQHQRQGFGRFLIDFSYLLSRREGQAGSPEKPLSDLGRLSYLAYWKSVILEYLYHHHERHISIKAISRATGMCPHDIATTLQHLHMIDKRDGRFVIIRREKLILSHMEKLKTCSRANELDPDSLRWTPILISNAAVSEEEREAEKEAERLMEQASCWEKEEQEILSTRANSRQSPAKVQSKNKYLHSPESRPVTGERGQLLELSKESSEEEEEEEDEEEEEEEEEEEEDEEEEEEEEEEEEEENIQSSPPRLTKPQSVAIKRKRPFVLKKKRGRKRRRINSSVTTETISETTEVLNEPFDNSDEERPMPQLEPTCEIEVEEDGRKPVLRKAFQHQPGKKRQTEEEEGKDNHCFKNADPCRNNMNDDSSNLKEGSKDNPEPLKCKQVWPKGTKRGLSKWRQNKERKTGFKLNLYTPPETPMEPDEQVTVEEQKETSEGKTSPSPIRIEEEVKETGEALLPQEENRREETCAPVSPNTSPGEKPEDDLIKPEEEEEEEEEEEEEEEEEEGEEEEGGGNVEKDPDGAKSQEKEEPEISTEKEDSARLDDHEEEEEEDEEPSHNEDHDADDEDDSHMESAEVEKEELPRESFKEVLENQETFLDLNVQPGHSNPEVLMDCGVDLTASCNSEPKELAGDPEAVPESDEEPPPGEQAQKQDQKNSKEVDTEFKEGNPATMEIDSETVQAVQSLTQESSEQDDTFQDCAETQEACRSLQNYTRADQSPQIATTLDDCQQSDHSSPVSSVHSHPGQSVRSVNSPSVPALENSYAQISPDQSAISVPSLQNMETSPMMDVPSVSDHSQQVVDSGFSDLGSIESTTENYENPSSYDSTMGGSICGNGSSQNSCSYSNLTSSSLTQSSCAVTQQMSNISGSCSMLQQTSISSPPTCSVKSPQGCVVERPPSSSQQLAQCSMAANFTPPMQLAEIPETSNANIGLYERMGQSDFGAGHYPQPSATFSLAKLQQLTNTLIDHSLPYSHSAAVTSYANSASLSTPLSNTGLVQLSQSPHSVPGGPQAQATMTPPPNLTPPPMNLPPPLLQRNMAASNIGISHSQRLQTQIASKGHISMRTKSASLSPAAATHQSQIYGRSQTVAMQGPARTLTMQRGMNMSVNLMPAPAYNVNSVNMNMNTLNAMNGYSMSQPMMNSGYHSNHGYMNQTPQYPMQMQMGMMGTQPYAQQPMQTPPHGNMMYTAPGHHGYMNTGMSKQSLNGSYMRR
Excerpt: KAT6B was obtained from SignalChem, catalog ID: K315-381BG

Row | Compound | IC50 (TIP60-KAT5 [1]) | IC50 (MOF-KAT8 [2]) | IC50 (MOZ-KAT6A [3]) | IC50 [4] | IC50 (HBO-KAT7 [5]) | IC50 ([4]; Homo sapiens, 24 h) | IC50 (TIP60-KAT5 [6]) | IC50 (HBO-KAT7 [7]) | IC50 (MOZ-KAT6A [8]) | IC50 (MOF-KAT8 [9]) | IC50 [10] | IC50 [11] | IC50 [12] | IC50 (QKF-KAT6B)
1 | O=C(NCC(c1ccccc1)c1ncco1)C1=Nc2ccccc2S(=O)(=O)N1 (single isomer, unassigned) [Example 136] | 27600 nM | > 125000 nM | 8030 nM | 7890 nM | 633 nM | – | – | – | – | – | – | – | – | –
2 | C#Cc1ccc2c(c1)S(=O)(=O)NC(C(=O)NCC(c1ccccc1)c1ccccc1)=N2 [Example 38, N-(2,2-diphenylethyl)-7-ethynyl-2H-benzo[e][1,2,4]thiadiazine-3-carboxamide 1,1-dioxide] | 1960 nM | – | 532 nM | – | 154 nM | 1500 nM | – | – | – | – | – | – | – | –
3 | O=C(NCC(c1ccc(F)cc1)c1ccccn1)C1=Nc2ccc(Br)cc2S(=O)(=O)N1 (stereo not drawn) [Example 39, 7-bromo-N-(2-(4-fluorophenyl)-2-(pyridin-2-yl)ethyl)-2H-benzo[e][1,2,4]thiadiazine-3-carboxamide 1,1-dioxide] | 5880 nM | – | – | – | 192 nM | 2490 nM | 3060 nM | 299 nM | 32 nM | – | – | – | – | –
4 | O=C(NCC(c1ccccc1)c1nncs1)C1=Nc2ccc(I)cc2S(=O)(=O)N1 (stereo not drawn) [Example 168] | – | 3390 nM | – | – | – | – | 458 nM | 621 nM | 8 nM | 26500 nM | 525 nM | 6440 nM | 8850 nM | 37 nM
5 | O=C(NCC(c1ccccc1)c1ncco1)C1=Nc2ccc(Cl)cc2S(=O)(=O)N1 (stereo not drawn) [Example 182] | – | 50000 nM | – | – | – | – | 284 nM | 237 nM | 6 nM | 24500 nM | 84 nM | 488 nM | 8100 nM | 59 nM
6 | CN(CC(c1ccccc1)c1ncco1)C(=O)C1=Nc2ccc(I)cc2S(=O)(=O)N1 (stereo not drawn) [Example 203] | – | 103000 nM | – | – | – | – | 3750 nM | 1670 nM | 427 nM | 115000 nM | > 10000 nM | 2260 nM | > 40000 nM | 3310 nM
7 | COCCC(CNC(=O)C1=Nc2ccc(I)cc2S(=O)(=O)N1)c1ccccc1 (stereo not drawn) [Example 220, 7-Iodo-N-(4-methoxy-2-phenylbutyl)-2H-benzo[e][1,2,4]thiadiazine-3-carboxamide 1,1-dioxide] | – | – | – | – | – | – | 1430 nM | 214 nM | 20 nM | 26800 nM | 540 nM | 917 nM | 7810 nM | 134 nM
8 | O=C(NCC(F)(F)c1ccccc1OC(F)F)C1=Nc2ccc(I)cc2S(=O)(=O)N1 [Example 231, N-(2-(2-(difluoromethoxy)phenyl)-2,2-difluoroethyl)-7-iodo-2H-benzo[e][1,2,4]thiadiazine-3-carboxamide 1,1-dioxide] | – | – | – | – | – | – | 306 nM | 143 nM | 100 nM | 6530 nM | > 10000 nM | 3880 nM | 4520 nM | 3240 nM

The remaining compounds from weak to strong by IC50 (TIP60-KAT5 [6]), led by results:

Row | IC50 (TIP60-KAT5 [1]) | IC50 (MOF-KAT8 [2]) | IC50 (MOZ-KAT6A [3]) | IC50 [4] | IC50 (HBO-KAT7 [5]) | IC50 ([4]; Homo sapiens, 24 h) | IC50 (TIP60-KAT5 [6]) | IC50 (HBO-KAT7 [7]) | IC50 (MOZ-KAT6A [8]) | IC50 (MOF-KAT8 [9]) | IC50 [10] | IC50 [11] | IC50 [12] | IC50 (QKF-KAT6B) | Compound
9 | – | 9780 nM | – | – | – | – | 221 nM | 115 nM | 17 nM | 14700 nM | 453 nM | 892 nM | 1520 nM | 117 nM | O=C(NCC(c1cccc(Cl)c1)c1ncco1)C1=Nc2ccc(I)cc2S(=O)(=O)N1 (stereo not drawn) [Example 163]
10 | – | 3540 nM | – | – | – | – | 193 nM | 111 nM | 2 nM | 15200 nM | 116 nM | 4940 nM | 29500 nM | 22 nM | O=C(NCC(c1ccccc1)c1ncco1)C1=Nc2ccc(-c3c[nH]nn3)cc2S(=O)(=O)N1 (stereo not drawn) [Example 213, N-(2-(Oxazol-2-yl)-2-phenylethyl)-7-(1H-1,2,3-triazol-4-yl)-2H-benzo[e][1,2,4]thiadiazine-3-carboxamide 1,1-dioxide]
11 | – | 104000 nM | – | – | – | – | 123 nM | 320 nM | 32 nM | 31200 nM | > 10000 nM | 35300 nM | > 40000 nM | 77 nM | O=C(NCC(c1ccccc1)c1nnc(CC(F)(F)F)o1)C1=Nc2ccc(I)cc2S(=O)(=O)N1 (stereo not drawn) [Example 181]
12 | 269 nM | – | 80.9 nM | – | 219 nM | 650 nM | 61 nM | 63 nM | 10 nM | 1300 nM | – | – | – | – | Cc1noc(C(CNC(=O)C2=Nc3ccc(I)cc3S(=O)(=O)N2)c2ccccc2)n1 (stereo not drawn) [Example 56]
13 | – | 6480 nM | – | – | – | – | 56 nM | 62 nM | 4 nM | 8400 nM | 57 nM | 349 nM | 516 nM | 27 nM | O=C(NCC(c1ccccc1)c1nccs1)C1=Nc2ccc(I)cc2S(=O)(=O)N1 (stereo not drawn) [Example 167]
14 | – | 10400 nM | – | – | – | – | 29 nM | 28 nM | 5 nM | 9660 nM | 112 nM | 219 nM | 1100 nM | 88 nM | O=C(NCC(c1ncco1)c1ccccc1OC(F)F)C1=Nc2ccc(I)cc2S(=O)(=O)N1 (stereo not drawn) [Example 179]
15 | – | 5130 nM | – | – | – | – | 25 nM | 41 nM | 5 nM | 6100 nM | > 10000 nM | 2870 nM | 2090 nM | 281 nM | O=C(NCCc1ccccc1-c1n[nH]c(=O)o1)C1=Nc2ccc(I)cc2S(=O)(=O)N1 [Example 172]
16 | – | 8740 nM | – | – | – | – | 25 nM | 20 nM | 4 nM | 5720 nM | 953 nM | 221 nM | 4440 nM | 65 nM | O=C(NCC(c1cccc(O)c1)c1ncco1)C1=Nc2ccc(I)cc2S(=O)(=O)N1 (stereo not drawn) [Example 215, N-(2-(3-Hydroxyphenyl)-2-(oxazol-2-yl)ethyl)-7-iodo-2H-benzo[e][1,2,4]thiadiazine-3-carboxamide 1,1-dioxide]
